Measured values published in US20200297711A1, “PHARMACEUTICAL COMPOSITION COMPRISING FGFR SELECTIVE TYROSINE KINASE INHIBITOR” (priority 2017, published 2020).
Marks after values point to notes of the source that are not given here.

Assay: Pharmacokinetics in plasma following single dose and repeated doses of Compound A 1.5 succinate
Format: in vivo, human
Conditions: for AUC(0-t) / Cavg / Cmax / Cmin / tmax / tmax, median (minimum − maximum) / AUC(0-inf) / CL/F / t1/2: Compound A
Experimental: In order to evaluate the PK when administered as a single dose, a single dose of Compound A for each treatment group (at the corresponding dosage for that group) was administered on Day 1. Compound A was administered when fasted, immediately after waking up with at least 10 hours fasting. Taking any meal was prohibited for 2 hours after administration and only drinking water was allowed.
Cycle 1 was started between 8 and 10 days after dosing in Cycle 0 and Compound A was administered continuously once daily. Compound A was administered at least 2 hours after breakfast, and any food intake was prohibited for 1 hour after administration. However, on Day 8 of Cycle 1, Compound A was administered immediately after waking up while the subject was fasted after at least 10 hours of overnight fasting in order to evaluate the PK. Taking any meals was prohibited for 2 hours after administration and only drinking water was allowed.
Plasma concentration profile of Compound A following a single dose and repeated doses of Compound A 1.5 succinate are shown in FIG. 1 and FIG. 2, respectively. The profile shown in FIG. 2 is that at steady state.
(§1) The pharmacokinetic parameters of Compound A following the single dose and repeated doses of Compound A 1.5 succinate are shown in the following table. The pharmacokinetic parameters of Compound A following repeated doses of Compound A 1.5 succinate shown below are those at steady state.
as §1, with “1.5 succinate updated after obtaining the above data are shown” for “1.5 succinate are shown”
The pharmacokinetic parameters of Compound B following the single dose and repeated doses of Compound A 1.5 succinate are shown in the following table. The pharmacokinetic parameters of Compound B following repeated doses of Compound A 1.5 succinate shown below are those at steady state.

[1] = repeated once-daily doses 30 mg, steady state (n = 2), Table 4
[2] = repeated once-daily doses 30 mg, steady state (n = 2), Table 5 (updated)
[3] = repeated once-daily doses 60 mg, steady state (n = 2), Table 4
[4] = repeated once-daily doses 60 mg, steady state (n = 2), Table 5 (updated)
[5] = repeated once-daily doses 100 mg, steady state (n = 3), Table 4
[6] = repeated once-daily doses 100 mg, steady state (n = 3), Table 5 (updated)
[7] = repeated once-daily doses 140 mg, steady state (n = 3), Table 4
[8] = repeated once-daily doses 140 mg, steady state (n = 3), Table 5 (updated)
[9] = repeated once-daily doses 180 mg, steady state (n = 3), Table 4
[10] = repeated once-daily doses 180 mg, steady state (n = 3), Table 5 (updated)
[11] = single dose 30 mg (n = 2), Table 4
[12] = single dose 30 mg (n = 2), Table 5 (updated)
[13] = single dose 60 mg (n = 3), Table 4
[14] = single dose 60 mg (n = 3), Table 5 (updated)
[15] = single dose 100 mg (n = 3), Table 4
[16] = single dose 100 mg (n = 3), Table 5 (updated)
[17] = single dose 140 mg (n = 3), Table 4
[18] = single dose 140 mg (n = 3), Table 5 (updated)
[19] = single dose 180 mg (n = 3), Table 4
[20] = single dose 180 mg (n = 3), Table 5 (updated)

## CNC(=O)n1ccc2cc(Oc3ccnc(NC(=O)c4ccc(C5CCN(CCO)CC5)cc4)c3)c(OCCOC)cc21 [Compound A, 5-((2-(4-(1-(2-hydroxyethyl)piperidin-4-yl)benzamide)pyridin-4-yl)oxy)-6-(2-methoxyethoxy)-N-methyl-1H-indole-1-carboxamide]
Compound A administered to human subjects
  metabolism in human subjects: metabolized in the body to produce Compound B
[1]
  AUC(0-t): 158 ng·h/mL
  Cavg: 6.58 ng/mL
  Cmax: 13.3 ng/mL
  Cmin: 2.48 ng/mL
  tmax: 4 (3-5) h
[2]
  AUC(0-t): 162 ng·h/mL
  Cavg: 6.75 ng/mL
  Cmax: 13.3 ng/mL
  Cmin: 4.50 ng/mL
  tmax, median (minimum − maximum): 3.99 (3.00-4.97) h
[3]
  AUC(0-t): 499^a^ h · ng/mL
  Cavg: 20.8^a ng/mL
  Cmax: 50.5^a ng/mL
  Cmin: 8.28^a ng/mL
  tmax: 2.5 (2-3)^a h
[4]
  AUC(0-t): 507^a^ h · ng/mL
  Cavg: 21.1^a ng/mL
  Cmax: 50.5^a ng/mL
  Cmin: 11.0^a ng/mL
  tmax, median (minimum − maximum): 2.54 (2.07-3.00) ^a h
[5]
  AUC(0-t): 1330 ± 417 ng·h/mL
  Cavg: 55.2 ± 17.3 ng/mL
  Cmax: 116 ± 3.79 ng/mL
  Cmin: 18.7 ± 7.95 ng/mL
  tmax: 3 (2-5) h
[6]
  AUC(0-t): 1340 ± 437 ng·h/mL
  Cavg: 55.91 ± 8.2 ng/mL
  Cmax: 116 ± 3.79 ng/mL
  Cmin: 22.3 ± 8.48 ng/mL
  tmax, median (minimum − maximum): 2.97 (2.03-5.00) h
[7]
  AUC(0-t): 4700 ± 3380 ng·h/mL
  Cavg: 196 ± 141 ng/mL
  Cmax: 372 ± 173 ng/mL
  Cmin: 101 ± 94.5 ng/mL
  tmax: 5 (3-5) h
[8]
  AUC(0-t): 4700 ± 3380 ng·h/mL
  Cavg: 196 ± 141 ng/mL
  Cmax: 372 ± 173 ng/mL
  Cmin: 117 ± 116 ng/mL
  tmax, median (minimum − maximum): 5.00 (2.98-5.08) h
[9]
  AUC(0-t): 3850 ± 777 ng·h/mL
  Cavg: 161 ± 32.3 ng/mL
  Cmax: 337 ± 60.3 ng/mL
  Cmin: 61.4 ± 19.9 ng/mL
  tmax: 5 (3-5) h
[10]
  AUC(0-t): 3860 ± 764 ng·h/mL
  Cavg: 161 ± 32.3 ng/mL
  Cmax: 337 ± 60.3 ng/mL
  Cmin: 64.8 ± 19.4 ng/mL
  tmax, median (minimum − maximum): 5.00 (3.05-5.08) h
[11]
  AUC(0-inf): 236 ng·h/mL
  AUC(0-t): 220 ng·h/mL
  CL/F: 128 L/h
  Cmax: 28.1 ng/mL
  t1/2: 22.8 h
  tmax: 3 (1-5) h
[12]
  AUC(0-inf): 239 ng·h/mL
  AUC(0-t): 222 ng·h/mL
  CL/F: 127 L/h
  Cmax: 28.1 ng/mL
  t1/2: 22.7 h
  tmax, median (minimum − maximum): 3.04 (0.93-5.15) h
[13]
  AUC(0-inf): 551 ± 240 ng·h/mL
  AUC(0-t): 529 ± 250 ng·h/mL
  CL/F: 122 ± 42.5 L/h
  Cmax: 38.7 ± 4.69 ng/mL
  t1/2: 23.1 ± 7.65 h
  tmax: 3 (3-5) h
[14]
  AUC(0-inf): 554 ± 247 ng·h/mL
  AUC(0-t): 533 ± 257 ng·h/mL
  CL/F: 121 ± 43.1 L/h
  Cmax: 38.7 ± 4.69 ng/mL
  t1/2: 23.1 ± 7.63 h
  tmax, median (minimum − maximum): 3.00 (2.97-4.98)^ h
[15]
  AUC(0-inf): 1120 ± 488 ng·h/mL
  AUC(0-t): 1090 ± 483 ng·h/mL
  CL/F: 103 ± 48.9 L/h
  Cmax: 85.9 ± 30.8 ng/mL
  t1/2: 15.1 ± 1.77 h
  tmax: 5 (3-5) h
[16]
  AUC(0-inf): 1120 ± 479 ng·h/mL
  AUC(0-t): 1080 ± 474 ng·h/mL
  CL/F: 103 ± 48.2 L/h
  Cmax: 85.9 ± 30.8 ng/mL
  t1/2: 15.2 ± 1.84 h
  tmax, median (minimum − maximum): 4.95 (2.97-5.10) h
[17]
  AUC(0-inf): 4000 ± 3340 ng·h/mL
  AUC(0-t): 3900 ± 3230 ng·h/mL
  CL/F: 60.4 ± 51.6 L/h
  Cmax: 227 ± 118.0 ng/mL
  t1/2: 26.4 ± 12.2 h
  tmax: 5 (3-5) h
[18]
  AUC(0-inf): 4050 ± 3340 ng·h/mL
  AUC(0-t): 3960 ± 3230 ng·h/mL
  CL/F: 59.0 ± 50.2 L/h
  Cmax: 227 ± 118 ng/mL
  t1/2: 26.4 ± 12.4 h
  tmax, median (minimum − maximum): 4.88 (3.00-5.08) h
[19]
  AUC(0-inf): 2570 ± 907 ng·h/mL
  AUC(0-t): 2540 ± 924 ng·h/mL
  CL/F: 75.0 ± 22.0 L/h
  Cmax: 154 ± 38.4 ng/mL
  t1/2: 23.6 ± 10.2 h
  tmax: 2 (2-5) h
[20]
  AUC(0-inf): 2610 ± 921 ng·h/mL
  AUC(0-t): 2570 ± 933 ng·h/mL
  CL/F: 74.2 ± 21.8 L/h
  Cmax: 154 ± 38.4 ng/mL
  t1/2: 23.7 ± 10.4 h
  tmax, median (minimum − maximum): 2.12 (1.95-5.00) h
